From the RepoRT retention time repository (doi:10.1016/j.scitotenv.2015.08.078)

Assay: RP, Waters ACQUITY UPLC BEH C18, 100 × 2.1 mm, 1.7 µm, 0.3 mL/min, estimated dead time 0.73 min; A: water + 0.1% formic acid, pH 3; B: methanol + 0.1% formic acid, pH 3; gradient (min/%B) 0/10 14/90 16/90 18/10
Details: stereoisomer not certain
Compound CON=C1CC2(CC3CC(CC=C(C)CC(C)C=CC=C4COC5C(O)C(C)=CC(C(=O)O3)C45O)O2)OC(C(C)=CC(C)C)C1C (configuration not stated) [Moxidectin] has an LC retention time of 15.8 min. In the case of O=C(Nc1ccccc1-c1ccc(Cl)cc1)c1cccnc1Cl [Boscalid], the LC retention time is reported as 10.7 min. In the case of O=C(Nc1ccccc1)N(Cc1ccc(Cl)cc1)C1CCCC1 [Pencycuron], the LC retention time is reported as 12.2 min. For Cc1cccc(Nc2ccccc2C(=O)O)c1C [Mefenamic acid], the LC retention time was 13.4 min. Work on CC(C)Nc1nc(N)nc(Cl)n1 [Deetheylatrazine] yielded an LC retention time of 6.06 min. For CNc1nc(NC(C)C)nc(SC)n1 [Desmetryn], the LC retention time was 8.78 min. Work on CCC(C)(C)NCC(O)c1cc(Cl)c(N)c(C(F)(F)F)c1 (configuration not stated) [Mapenterol] yielded an LC retention time of 7.01 min. Compound CNC(=N[N+](=O)[O-])NCc1cnc(Cl)s1 [Clothianidin] has an LC retention time of 4.13 min. For O=C(NC(=O)c1c(F)cccc1F)Nc1cc(Cl)c(OC(F)(F)C(F)F)c(Cl)c1 [Hexaflumuron], the LC retention time was 12.6 min. In the case of Nc1ccc(S(=O)(=O)Nc2nccs2)cc1 [Sulfathiazole], the LC retention time is reported as 2.26 min. With COC(=O)c1ccccc1S(=O)(=O)NC(=O)Nc1nc(OC(F)F)cc(OC(F)F)n1 [Primisulfuron-methyl] the LC retention time was 8.86 min. With CCCCC1C(=O)N(c2ccccc2)N(c2ccc(O)cc2)C1=O (configuration not stated) [Oxyphenylbutazone] the LC retention time was 9.97 min. Work on CCS(=O)(=O)c1nc2ccccn2c1S(=O)(=O)NC(=O)Nc1nc(OC)cc(OC)n1 [Sulfosulfuron] yielded an LC retention time of 6.42 min. Compound CN1CCC23c4c5ccc(O)c4OC2C(O)C=CC3C1C5 (configuration not stated) [Morphine] has an LC retention time of 2.86 min. Work on CCSCc1ccccc1OC(=O)NC [Ethiofencarb] yielded an LC retention time of 8.89 min. For COP(=S)(OC)Oc1ccc([N+](=O)[O-])cc1 [Parathion-methyl], the LC retention time was 9.6 min. CC(C)(C)C(O)C(=Cc1ccc(Cl)cc1Cl)n1cncn1 (configuration not stated) [Diniconazole] showed an LC retention time of 12.2 min. With CCC1OC(=O)CC(O)C(C)C(OC2OC(C)C(O)C(N(C)C)C2O)C(CCN2CC(C)CC(C)C2)CC(C)C(=O)C=CC(C)=CC1COC1OC(C)C(O)C(OC)C1OC (configuration not stated) [Tilmicosin] the LC retention time was 8.78 min. For CNC1(c2ccccc2Cl)CCCCC1=O (configuration not stated) [Ketamine], the LC retention time was 4.88 min. For CCC(C)c1ccccc1OC(=O)NC (configuration not stated) [Fenobucarb], the LC retention time was 9.78 min. For COC1C(OC(C)=O)CC(=O)OC(C)CC=CC=CC(O)C(C)CC(CC=O)C1OC1OC(C)C(OC2CC(C)(O)C(OC(=O)CC(C)C)C(C)O2)C(N(C)C)C1O (configuration not stated) [Josamycin], the LC retention time was 11.4 min. With CCCOP(=S)(OCCC)SCC(=O)N1CCCCC1C (configuration not stated) [Piperophos] the LC retention time was 12.3 min. Compound CN(C)C(=O)Nc1ccc(-n2nc(C(C)(C)C)oc2=O)c(Cl)c1 [Dimefuron] has an LC retention time of 9.63 min. CC1(C)CCC(=Cc2ccc(Cl)cc2)C1(O)Cn1cncn1 (configuration not stated) [Triticonazole] gave an LC retention time of 11 min. For Nc1nc(N)nc(NC2CC2)n1 [Cyromazine], the LC retention time was 1.45 min. With CCOP(=S)(OCC)SCSP(=S)(OCC)OCC [Ethion] the LC retention time was 13.4 min. CCC(C)C(=O)OC1CC(O)C=C2C=CC(C)C(CCC(O)CC(O)CC(=O)O)C21 (configuration not stated) [Pravastatin] gave an LC retention time of 7.96 min. With COc1nc(C)nc(NC(=O)NS(=O)(=O)c2ccccc2OCCCl)n1 [Triasulfuron] the LC retention time was 6.67 min. With COC(=O)C=C(C)OP(=O)(OC)OC [Mevinphos trans] the LC retention time was 4.95 min. N#Cc1c[nH]cc1-c1cccc2c1OC(F)(F)O2 [Fludioxonil] gave an LC retention time of 10.1 min. O=C1Nc2ccc(Cl)cc2C(c2ccccc2Cl)=NC1O (configuration not stated) [Lorazepam] gave an LC retention time of 9.87 min. CCCSP(=O)(OCC)SCCC [Ethoprophos] gave an LC retention time of 11.1 min. COP(=O)(OC)OC=C(Cl)Cl [Dichlorvos] gave an LC retention time of 7.31 min. Compound COc1ncnc(NS(=O)(=O)c2ccc(N)cc2)c1OC [Sulfadoxine] has an LC retention time of 5 min. Compound CCC(C)(C)NCC(O)c1cc(Cl)c(N)c(Cl)c1 (configuration not stated) [Clenpenterol] has an LC retention time of 6.19 min. For CC1=NNC(=O)N(N=Cc2cccnc2)C1 [Pymetrozine], the LC retention time was 2.25 min. Work on COc1cc(OC)n2nc(S(=O)(=O)Nc3c(Cl)ccc(C)c3Cl)nc2n1 [Metosulam] yielded an LC retention time of 7.54 min. Work on CC12CCC3C4CCC(=O)C=C4CCC3C1CCC2O (stereo not drawn) [Nandrolone. beta-nortestosterone] yielded an LC retention time of 10.6 min. Work on CCN(CC)C(=O)N1CCN(C)CC1 [Diethylcarbamazine] yielded an LC retention time of 2.52 min. Work on CCc1nc(N)nc(N)c1-c1ccc(Cl)cc1 [Pyrimethamine] yielded an LC retention time of 7.2 min. With CN(C)CCC(c1ccc(Cl)cc1)c1ccccn1 (configuration not stated) [Chlorpheniramine] the LC retention time was 7.27 min. With CC(=NC#N)N(C)Cc1ccc(Cl)nc1 [Acetamiprid] the LC retention time was 4.99 min. For COC1CC(OC2CC(C3OC(C)(O)C(C)CC3C)OC2C2(C)CCC(C3(C)CCC4(CC(O)C(C)C(C(C)C5OC(O)(CC(=O)O)C(C)C(OC)C5OC)O4)O3)O2)OC(C)C1OC (configuration not stated) [Maduramicine], the LC retention time was 15.7 min. For CCS(=O)CCSP(=O)(OC)OC (configuration not stated) [Oxydemeton-methyl], the LC retention time was 3.15 min. Compound CCOC(=O)CCN(Cc1ccccc1)SN(C)C(=O)ON=C(C)SC [Alanycarb] has an LC retention time of 11.6 min. For OC(Cn1cncn1)(c1ccc(F)cc1)c1ccccc1F (configuration not stated) [Flutriafol], the LC retention time was 8.93 min. Compound O=[N+]([O-])/N=C1\NCCN1Cc1ccc(Cl)nc1 [Imidacloprid] has an LC retention time of 4.63 min. CCCSC(=O)N(CCC)CCC [Vernolat] gave an LC retention time of 12.2 min. CNC(=O)ON=CC(C)(C)S(C)(=O)=O [Aldicarb sulfone] showed an LC retention time of 4.8 min. CNC(=O)C=C(C)OP(=O)(OC)OC [Monocrotophos] gave an LC retention time of 3.57 min. With CCC(C(=O)O)C1CCC(C)C(C(C)C(O)C(C)C(=O)C(CC)C2OC3(C=CC(O)C4(CCC(C)(C5CCC(O)(CC)C(C)O5)O4)O3)C(C)CC2C)O1 (configuration not stated) [Salinomycin] the LC retention time was 15.9 min. With COC1CC(OC2C(C)OC(OC3C(C)=CCC4CC(CC5(C=CC(C)C(C6CCCCC6)O5)O4)OC(=O)C4C=C(C)C(O)C5OCC(=CC=CC3C)C45O)CC2OC)OC(C)C1O (configuration not stated) [Doramectine] the LC retention time was 15.7 min. For CCCCCCCCn1sccc1=O [Octhilinone (2-Octyl-4-isothiazoline-3-one)], the LC retention time was 11 min. O=C(NC(=O)c1c(F)cccc1F)Nc1ccc(Cl)cc1 [Diflubenzuron] gave an LC retention time of 11.2 min. With Cc1ncc([N+](=O)[O-])n1CCCO [Ternidazole] the LC retention time was 2.89 min. For Nc1c(Cl)c(F)nc(OCC(=O)O)c1Cl [Fluroxypyr], the LC retention time was 7.71 min. CC(C)(C)NCC(O)c1cc(Br)c(N)c(Br)c1 (configuration not stated) [Brombuterol] showed an LC retention time of 5.9 min. Compound CON(C)C(=O)Nc1ccc(Cl)c(Cl)c1 [Linuron] has an LC retention time of 10.3 min. With CCCCc1c(C)nc(NCC)nc1OS(=O)(=O)N(C)C [Bupirimate] the LC retention time was 11.2 min. Cc1nnc(NS(=O)(=O)c2ccc(N)cc2)s1 [Sulfamethiazole] showed an LC retention time of 3.19 min. In the case of Clc1ccc(CSC(Cn2cncn2)=Nc2ccc(Cl)cc2Cl)cc1 [Imibenconazole], the LC retention time is reported as 13 min. CC(C)(CO)NCC(O)c1cc(Cl)c(N)c(Cl)c1 (configuration not stated) [Hydroxymethyl clenbuterol] showed an LC retention time of 4.17 min.
